Row | SMILES | melting point
1 | NS(=O)(=O)c1cc(C#Cc2cnn3c(C4CC4)cc(-c4ccc(Cl)cc4)nc23)c(F)cc1F [Example 70, 5-[5-(4-Chloro-phenyl)-7-cyclopropyl-pyrazolo[1,5-a]pyrimidin-3-ylethynyl]-2,4-difluoro-benzenesulfonamide] | 272 to 275 °C
2 | NS(=O)(=O)c1cccc(C#Cc2cnn3c(C4CC4)cc(-c4ccc(Cl)cc4)nc23)c1 [Example 72, 3-[5-(4-Chloro-phenyl)-7-cyclopropyl-pyrazolo[1,5-a]pyrimidin-3-ylethynyl]-benzenesulfonamide] | 236 to 237 °C
3 | NS(=O)(=O)c1cncc(C#Cc2cnn3ccc(-c4ccc(Cl)cc4)nc23)c1 [Example 73, 5-[5-(4-Chloro-phenyl)-pyrazolo[1,5-a]pyrimidin-3-ylethynyl]-pyridine-3-sulfonic acid amide] | 248 to 249 °C
4 | CC(C)(CO)NS(=O)(=O)c1cncc(C#Cc2cnn3ccc(-c4ccc(Cl)cc4)nc23)c1 [Example 74, 5-[5-(4-Chloro-phenyl)-pyrazolo[1,5-a]pyrimidin-3-ylethynyl]-pyridine-3-sulfonic acid (2-hydroxy-1,1-dimethyl-ethyl)-amide] | 185 to 186 °C
5 | COc1ccc(C#Cc2cnn3ccc(-c4ccc(Cl)cc4)nc23)cc1S(=O)(=O)NC(C)(C)CO [Example 75, 5-[5-(4-Chloro-phenyl)-pyrazolo[1,5-a]pyrimidin-3-ylethynyl]-N-(2-hydroxy-1,1-dimethyl-ethyl)-2-methoxy-benzenesulfonamide] | 264 to 266 °C
6 | NS(=O)(=O)c1ccc(C#Cc2cnn3c(C4CC4)cc(-c4ccc(C(F)(F)F)cc4)nc23)cc1 [Example 76, 4-[7-Cyclopropyl-5-(4-trifluoromethyl-phenyl)-pyrazolo[1,5-a]pyrimidin-3-ylethynyl]-benzenesulfonamide] | 228 to 230 °C
7 | NS(=O)(=O)c1cc(C#Cc2cnn3c(C4CC4)cc(-c4ccc(C(F)(F)F)cc4)nc23)c(F)cc1F [Example 77, 5-[7-Cyclopropyl-5-(4-trifluoromethyl-phenyl)-pyrazolo[1,5-a]pyrimidin-3-ylethynyl]-2,4-difluoro-benzenesulfonamide] | 255 to 257 °C
8 | CC(C)(CO)NS(=O)(=O)c1cncc(C#Cc2cnn3c(C4CC4)cc(-c4ccc(C(F)(F)F)cc4)nc23)c1 [Example 78, 5-[7-Cyclopropyl-5-(4-trifluoromethyl-phenyl)-pyrazolo[1,5-a]pyrimidin-3-ylethynyl]-pyridine-3-sulfonic acid (2-hydroxy-1,1-dimethyl-ethyl)-amide] | 190 to 191 °C
9 | NS(=O)(=O)c1cncc(C#Cc2cnn3c(C4CC4)cc(-c4ccc(C(F)(F)F)cc4)nc23)c1 [Example 79, 5-[7-Cyclopropyl-5-(4-trifluoromethyl-phenyl)-pyrazolo[1,5-a]pyrimidin-3-ylethynyl]-pyridine-3-sulfonic acid amide] | 276 to 277 °C
10 | CC(CO)(CO)NS(=O)(=O)c1cncc(C#Cc2cnn3c(C4CC4)cc(-c4ccc(C(F)(F)F)cc4)nc23)c1 [Example 80, 5-[7-Cyclopropyl-5-(4-trifluoromethyl-phenyl)-pyrazolo[1,5-a]pyrimidin-3-ylethynyl]-pyridine-3-sulfonic acid (2-hydroxy-1-hydroxymethyl-1-methyl-ethyl)-amide] | 190 to 191 °C
11 | COc1ccc(C#Cc2cnn3c(C4CC4)cc(-c4ccc(C(F)(F)F)cc4)nc23)cc1S(=O)(=O)NC(C)(C)CO [Example 81, 5-[7-Cyclopropyl-5-(4-trifluoromethyl-phenyl)-pyrazolo[1,5-a]pyrimidin-3-ylethynyl]-N-(2-hydroxy-1,1-dimethyl-ethyl)-2-methoxy-benzenesulfonamide] | 192 to 195 °C
12 | CC(C)(CO)NS(=O)(=O)c1cnc(C#Cc2cnn3c(C4CC4)cc(-c4ccc(C(F)(F)F)cc4)nc23)s1 [Example 82, 2-[7-Cyclopropyl-5-(4-trifluoromethyl-phenyl)-pyrazolo[1,5-a]pyrimidin-3-ylethynyl]-thiazole-5-sulfonic acid (2-hydroxy-1,1-dimethyl-ethyl)-amide] | 243 to 245 °C
13 | NS(=O)(=O)c1ccc(C#Cc2cnn3c(C4CC4)cc(-c4ccc(C(F)(F)F)cc4)nc23)s1 [Example 83, 5-[7-Cyclopropyl-5-(4-trifluoromethyl-phenyl)-pyrazolo[1,5-a]pyrimidin-3-ylethynyl]-thiophene-2-sulfonic acid amide] | 231 to 233 °C
14 | NS(=O)(=O)c1cccc(C#Cc2cnn3c(C4CC4)cc(-c4ccc(C(F)(F)F)cc4)nc23)c1 [Example 84, 3-[7-Cyclopropyl-5-(4-trifluoromethyl-phenyl)-pyrazolo[1,5-a]pyrimidin-3-ylethynyl]-benzenesulfonamide] | 262 to 264 °C
15 | NS(=O)(=O)c1cc(C#Cc2cnn3c(C4CC4)cc(-c4ccc(Cl)c(Cl)c4)nc23)c(F)cc1F [Example 85, 5-[7-Cyclopropyl-5-(3,4-dichloro-phenyl)-pyrazolo[1,5-a]pyrimidin-3-ylethynyl]-2,4-difluoro-benzenesulfonamide] | 280 to 281 °C
16 | NS(=O)(=O)c1cccc(C#Cc2cnn3c(C4CC4)cc(-c4ccc(Cl)c(Cl)c4)nc23)c1 [Example 87, 3-[7-Cyclopropyl-5-(3,4-dichloro-phenyl)-pyrazolo[1,5-a]pyrimidin-3-ylethynyl]-benzenesulfonamide] | 200 to 202 °C
17 | NS(=O)(=O)c1ccc(C#Cc2cnn3c(C4CC4)cc(-c4ccc(Cl)c(Cl)c4)nc23)cc1 [Example 88, 4-[7-Cyclopropyl-5-(3,4-dichloro-phenyl)-pyrazolo[1,5-a]pyrimidin-3-ylethynyl]-benzenesulfonamide] | 259 to 261 °C

Further lines, results first:

Row | melting point | SMILES
18 | 231 to 232 °C | NS(=O)(=O)c1ccc(C#Cc2cnn3c(C(F)(F)F)cc(-c4ccc(Cl)c(Cl)c4)nc23)s1 [Example 89, 5-[5-(3,4-Dichloro-phenyl)-7-trifluoromethyl-pyrazolo[1,5-a]pyrimidin-3-ylethynyl]-thiophene-2-sulfonic acid amide]
19 | 220 to 223 °C | CC(C)(CO)NS(=O)(=O)c1cnc(C#Cc2cnn3c(C(F)(F)F)cc(-c4ccc(Cl)c(Cl)c4)nc23)s1 [Example 90, 2-[5-(3,4-Dichloro-phenyl)-7-trifluoromethyl-pyrazolo[1,5-a]pyrimidin-3-ylethynyl]-thiazole-5-sulfonic acid (2-hydroxy-1,1-dimethyl-ethyl)-amide]
20 | 308 to 310 °C | NS(=O)(=O)c1cc(C#Cc2cnn3c(C(F)(F)F)cc(-c4ccc(Cl)c(Cl)c4)nc23)c(F)cc1F [Example 92, 5-[5-(3,4-Dichloro-phenyl)-7-trifluoromethyl-pyrazolo[1,5-a]pyrimidin-3-ylethynyl]-2,4-difluoro-benzenesulfonamide]
21 | 230 to 231 °C | NS(=O)(=O)c1cccc(C#Cc2cnn3c(C(F)(F)F)cc(-c4ccc(Cl)c(Cl)c4)nc23)c1 [Example 93, 3-[5-(3,4-Dichloro-phenyl)-7-trifluoromethyl-pyrazolo[1,5-a]pyrimidin-3-ylethynyl]-benzenesulfonamide]
22 | 273 to 274 °C | NS(=O)(=O)c1ccc(C#Cc2cnn3c(C(F)(F)F)cc(-c4ccc(Cl)c(Cl)c4)nc23)cc1 [Example 94, 4-[5-(3,4-Dichloro-phenyl)-7-trifluoromethyl-pyrazolo[1,5-a]pyrimidin-3-ylethynyl]-benzenesulfonamide]
23 | 226 to 229 °C | CC(C)(CO)NS(=O)(=O)c1cccc(C#Cc2cnn3c(C(F)(F)F)cc(-c4ccc(Cl)cc4)nc23)c1 [Example 95, 3-[5-(4-Chloro-phenyl)-7-trifluoromethyl-pyrazolo[1,5-a]pyrimidin-3-ylethynyl]-N-(2-hydroxy-1,1-dimethyl-ethyl)-benzenesulfonamide]
24 | 292 to 293 °C | NS(=O)(=O)c1cc(C#Cc2cnn3c(C(F)(F)F)cc(-c4ccc(Cl)cc4)nc23)c(F)cc1F [Example 96, 5-[5-(4-Chloro-phenyl)-7-trifluoromethyl-pyrazolo[1,5-a]pyrimidin-3-ylethynyl]-2,4-difluoro-benzenesulfonamide]
25 | 239 to 240 °C | NS(=O)(=O)c1ccc(C#Cc2cnn3c(C(F)(F)F)cc(-c4ccc(Cl)cc4)nc23)s1 [Example 97, 5-[5-(4-Chloro-phenyl)-7-trifluoromethyl-pyrazolo[1,5-a]pyrimidin-3-ylethynyl]-thiophene-2-sulfonic acid amide]
26 | 218 to 220 °C | NS(=O)(=O)c1cccc(C#Cc2cnn3c(C(F)(F)F)cc(-c4ccc(Cl)cc4)nc23)c1 [Example 98, 3-[5-(4-Chloro-phenyl)-7-trifluoromethyl-pyrazolo[1,5-a]pyrimidin-3-ylethynyl]-benzenesulfonamide]
27 | 290 to 293 °C | NS(=O)(=O)c1cccc(C#Cc2cnn3c(C(F)(F)F)cc(-c4ccc(Cl)cc4)nc23)c1 [Example 99, 3-[5-(4-Chloro-phenyl)-7-trifluoromethyl-pyrazolo[1,5-a]pyrimidin-3-ylethynyl]-benzenesulfonamide]
28 | 196 °C | Cc1cc(-c2cc(C(F)(F)F)n3ncc(C#Cc4cccnc4)c3n2)ccc1Cl [Example 101, 5-(4-Chloro-3-methyl-phenyl)-3-pyridin-3-ylethynyl-7-trifluoromethyl-pyrazolo[1,5-a]pyrimidine]
29 | 204 °C | Cc1cc(-c2cc(C(F)(F)F)n3ncc(C#Cc4cccc(S(=O)(=O)NC(C)(C)CO)c4)c3n2)ccc1Cl [Example 102, 3-[5-(4-Chloro-3-methyl-phenyl)-7-trifluoromethyl-pyrazolo[1,5-a]pyrimidin-3-ylethynyl]-N-(2-hydroxy-1,1-dimethyl-ethyl)-benzenesulfonamide]
30 | 173 °C | FC(F)(F)c1cccc(-c2cc(C(F)(F)F)n3ncc(C#Cc4cccnc4)c3n2)c1 [Example 103, 3-Pyridin-3-ylethynyl-7-trifluoromethyl-5-(3-trifluoromethyl-phenyl)-pyrazolo[1,5-a]pyrimidine]
31 | 123 °C | Cc1cc(-c2cc(C(F)(F)F)n3ncc(C#Cc4ncc(S(N)(=O)=O)s4)c3n2)ccc1Cl [Example 104, 2-[5-(4-Chloro-3-methyl-phenyl)-7-trifluoromethyl-pyrazolo[1,5-a]pyrimidin-3-ylethynyl]-thiazole-5-sulfonic acid amide]
